Patent publication US20200247846A1, “INHIBITION OF OXIDATIVE STRESS, GLYCATION, AND PROTEIN CROSSLINKING” (THE REGENTS OF THE UNIVERSITY OF COLORADO, A BODY CORPORATE, priority 2017, published 2020)

What was measured:
[1] = Stability of GTG in buffers, UPLC-MS MRM analysis; assay type: physicochemical; conditions: for stability: up to 48 h
Experimental: All chromatographic analyses were carried out in a Waters Acquity UPLC system connected to a Sciex 4500 QTrap (Redwood City, Calif.). Mass spectrometric analyses were carried out in the multiple reaction monitoring (MRM) mode. Chromatographic separations were carried out in an ACQUITY BEH C18 peptide column (100*2.1 mm, 1.7 μm; Waters) connected to a guard column using a flow rate of 0.5 ml/min. Water (solvent A) and acetonitrile (solvent B) were used as eluents. To both solvents, 0.1% heptafluorobutyric acid (v/v) was added. Analyses were performed at a column temperature of 40° C. using gradient elution: 5% B (0-0.25 min) to 20% B (2 min) to 50% B (3 min) to 100% B (3.5-5 min). The column was equilibrated at 5% B for 1 min prior to the next analysis. Detection of the analytes was achieved by using full scan mode for the identification of metabolites in preparative HPLC fraction and multiple reaction monitoring for the quantitation in stability experiments. The ion source was run under the following conditions: temperature, 550° C.; ion spray voltage, 4.5 kV; curtain gas, 45 ml/min; nebulizer gas, 60 ml/min; heating gas, 60 ml/min.
To test the stability, GTG was incubated under various conditions. The following buffers were used: 0.1 M phosphate buffer pH 5, 0.1 M phosphate buffer pH 7, 0.1 M phosphate buffer pH 9 and 0.1% formic acid. 10 μM solutions of […] in each buffer were stored at 4° C., 25° C. or 37° C. for up to 48 h, respectively. Sample aliquots were directly injected to ULPC-MS for MRM analysis. For the identification of degradation products sample aliquots were analyzed using full scan mode.

αB-Crystallin = αB-Crystallin incubated with methylglyoxal with or without GTG: covalent crosslinking and AGE levels; assay type: biochemical; conditions: 250 μM GTG + 250 μM MGO
Experimental: Legend: 1. αB-crystallin control, 2. αB-crystallin+250 μM GTG, 3. αB-crystallin+250 μM MGO, 4. αB-crystallin+250 μM GTG+250 μM MGO. The bar graphs are means±SD of triplicate measurements. ***p<0.0005. […] Lanes: 1. MW marker, 2. αB-crystallin standard, 3. αB-crystallin blank, 4. αB-crystallin+250 μM GTG, 5. αB-crystallin+250 μM MGO, 5. αB-crystallin+250 μM GTG and 250 μM MGO.
To test the efficacy of GTG in the inhibition of AGE production, αB-Crystallin was incubated with methylglyoxal in the presence or absence of GTG and analyzed for covalent crosslinking and AGE levels.

[2] = test system: human lens cells (FHL 124); test: FHL 124 cells: levels of GTG metabolites and α-dicarbonyls; assay type: cell-based
Experimental: FIG. 6A depicts the scheme of dehydroascorbate (DHA) degradation and formation of reactive α-dicarbonyls and AGEs. […] The bar graphs are means±SD of triplicate measurements. **p<0.005, ***p<0.0005.
Next, human lens cells (FHL 124) were incubated with dehydroascorbic acid in the presence or absence of GTG and analyzed for levels of GTG and its metabolites as well as α-dicarbonyls. […] FHL124 cells were pretreated with GTG before either DHA or MGO was added.

diabetic mice = test: AGE levels in lenses and retinas of STZ-diabetic mice by UPLC-MS/MS; assay type: in vivo; conditions: 1 nmole/g body weight i.p. once every two days, 8 weeks; vs untreated diabetic controls
Experimental: The bar graphs are the means±SD of at least 8 measurements. *p<0.05, **p<0.005.
GTG was also tested in diabetic mice. Diabetes was induced by repeated STZ injections. GTG (1 nmole/g body weight) was injected intraperitoneally once every two days. After 8 weeks, lenses and retinas were harvested and analyzed for AGE levels by UPLC-MS/MS.

Mouse lenses = test: Mouse lens stiffness (axial and equatorial strain under load); conditions: 1.5 mM GTG, 48 h, 37° C.; load of 2,700 mg
Experimental: Mouse lenses (6 months old) were incubated with 1.5 mM GTG for 48 h at 37° C. in serum free MEM in a CO2 incubator. Lens stiffness was measured using a set up as described previously (Cheng C, et al., Journal of visualized experiments: JoVE. 2016, (111):10.3791/ 53986). Lens stiffness was measured using a load of 2,700 mg. Axial and equatorial strains were calculated as previously described (Chen, JOVE 2016, supra).

stability ([1]; 0.1% formic acid, 10 μM, 4° C., 25° C. or 37° C.): stable at all temperatures | stability ([1]; 0.1 M phosphate buffer pH 5, 4° C.): stable | stability ([1]; 0.1 M phosphate buffer pH 5, 25° C.): stable | stability ([1]; 0.1 M phosphate buffer pH 5, 37° C.): slightly degraded | stability ([1]; 0.1 M phosphate buffer pH 7, 4° C., 25° C. or 37° C.): degraded at all temperatures | stability ([1]; 0.1 M phosphate buffer pH 9, 4° C., 25° C. or 37° C.): degraded at all temperatures | reduction of the disulfide bond during the incubation ([1]; all buffer and temperature conditions of the stability test): not observed | penetration of the plasma membrane of FHL124 cells ([2]; 50 mM GTG for 2 h): able to penetrate the plasma membrane
SMILES: CCOC(=O)CNC(=O)C(CSSCCNC(=N)N)NC(=O)CCC(N)C(=O)OCC (stereo not shown) [GTG, glutathione diethyl ester thioethylguanidine disulfide]
covalent crosslinking in αB-crystallin incubated with methylglyoxal (αB-Crystallin; SDS-PAGE): significantly reduced | AGE formation (CEL levels) in αB-crystallin incubated with methylglyoxal (αB-Crystallin; after acid hydrolysis): significantly reduced | intracellular conversion to glutathione and mercaptoethylguanidine ([2]; 50 mM GTG for 2 h, FHL124 cells): immediately reduced and hydrolyzed to glutathione and mercaptoethylguanidine | reactive α-dicarbonyls derived from dehydroascorbic acid ([2]; cells treated 24 h with dehydroascorbic acid, subsequent incubation with GTG): significant reduction | AGE levels in the lens (diabetic mice): lower | AGE levels in the retina (diabetic mice): lower | improvement of axial strain in comparison to control lenses (Mouse lenses): 23% | improvement of equatorial strain in comparison to control lenses (Mouse lenses): 72%
